# Source: patent US20210322508A1, “PEPTIDES AND COMPOSITIONS FOR TARGETED TREATMENT AND IMAGING” (SIGNABLOK, INC., priority 2018, published 2021)
# Residues, ends and D or L forms follow the SMILES beside them.
# How the values were obtained:
# LPS-challenged mice [1] = assay: cytokine production in LPS-challenged mice; type: in vivo; conditions: treated 1 h before LPS challenge
# Procedure: Control peptide represents an equimolar mixture of two peptides, each of them comprising two amino acid domains A and B where domain A represents a non-functional 9 amino acids-long sequence of the TREM-1 inhibitory therapeutic peptide sequence wherein, Lys5 is substituted with Ala5, whereas domain B is a sulfoxidized methionine residue-containing 22 amino acids-long apolipoprotein A-I helix 4 or 6 peptide sequence, respectively. *, P=0.01 to 0.05 as compared with animals treated with 5 mg/kg TRIOPEP in free form; ***, P=0.0001 to 0.001 as compared with PBS-treated animals.
# LPS-challenged mice [2] = assay: survival of LPS-challenged (septic shock) mice; type: in vivo; conditions: vs vehicle
# Text: FIG. 15B. **, P=0.001 to 0.01 as compared with vehicle-treated animals.
# [3] = tested on: human non-small cell lung cancer A549 xenograft; type: in vivo; conditions: vs vehicle; for tumor growth: PTX 20 mg/kg as comparator
# Procedure: PTX, paclitaxel. ****, P<0.0001 as compared with vehicle-treated animals.
# PTX, paclitaxel. ****, p<0.0001 as compared with vehicle-treated animals.
# Abbreviations: PTX, paclitaxel; PBS, phosphate-buffer saline.
# Treatment persisted for 21 days. Mean tumor volumes are calculated and plotted. Body weighs are plotted.
# [4] = tested on: human pancreatic cancer BxPC-3 xenograft; conditions: for intratumoral macrophage infiltration (F4/80 staining): 25 mg/kg GF9, 2.5 mg/kg GF9-sSLP/GF9-LPC, 4 mg/kg GA/E31-sSLP where stated; for tumor growth: i.p. 5qw, 25 mg/kg GF9, 2.5 mg/kg GF9-SLP, 4 mg/kg GA/E31-SLP where stated
# Procedure: (B) F4/80 staining. Results are expressed as the mean±SEM (n=4 mice per group). *, p<0.05; **, p<0.01, ****, p<0.0001 (versus vehicle). […] Scale bar=200 μm.
# Treatment persisted for 31, 29 and 29 days for mice containing AsPC-1, BxPC-3 and Capan-1 tumor xenografts, respectively. Mean tumor volumes are calculated and plotted. All results are expressed as the mean±SEM (n=6 mice per group). On the final day of treatment, tumor volumes were compared between the drug-treated and control groups. **, p<0.01; ***, p<0.001; ****, p<0.0001 (versus vehicle).
# As described herein, after tumors in AsPC-1-, BxPC-3- or Capan-1-bearing mice reached a volume of 150-200 mm^3, mice were randomized into groups and intraperitoneally (i.p.) administered once daily 5 times per week (5qw) with either vehicle (black diamonds), GA/E31-dSLP (light gray triangles) or GA/E31-sSLP (white triangles) at indicated doses. Treatment persisted for 31, 29 and 29 days for mice containing AsPC-1, BxPC-3 and Capan-1 tumor xenografts, respectively. Mean tumor volumes are calculated and plotted. All results are expressed as the mean±SEM (n=6 mice per group). On the final day of treatment, tumor volumes were compared between the drug-treated and control groups. **, p<0.01; ***, p<0.001; ****, p<0.0001 (versus vehicle).
# Treatment persisted for 31, 29 and 29 days for mice containing AsPC-1, BxPC-3 and Capan-1 tumor xenografts, respectively. Kaplan-Meier survival curves are shown for AsPC-1-, BxPC-3- or Capan-1-bearing mice (n=6 mice per group). **, p<0.01; ***, p<0.001 by log-rank test (versus vehicle).
# Serum CSF1, VEGF and IL-6 levels were analyzed on study days 1 and 8 in BxPC-3-bearing mice treated daily 5 times per week (5qw) with either vehicle (black diamonds), GF9 (white circles) or GF9-LPC (black circles) at indicated doses. Results are expressed as the mean±SEM (n=5 mice per group). *, p<0.05; **, p<0.01; ***, p<0.001; ****, p<0.0001 (versus vehicle).
# [5] = tested on: TNF-alpha, IL-1beta and IL-6; assay: LPS-induced endotoxemia: in vivo serum cytokine release; design: species or system mouse; conditions: free peptides, at this dose; serum 90 min after 30 mg/kg LPS
# Procedure: (§1) One hour later, mice received i.p. injection of 30 mg/kg LPS from E. coli 055:B5 (Sigma). In some experiments, all formulations were i.p. administered 1 and 3 h after LPS injection. The viability of mice was examined hourly. Body weights were measured daily. In all of the animal experiments, blood samples were collected via a sub-mandibular (cheek) bleed at 90 min after administration of LPS. Statistical analysis of survival curves was performed by the Kaplan-Meier test. Comparisons were made using two-tailed Student's t test. The production of cytokines in serum was measured by a standard sandwich cytokine ELISA procedure using TNF-alpha, IL-1beta and IL-6 ELISA kits (Pierce Biotechnology, Thermo Scientific, Rockford, Ill.) according to the instructions of the manufacturer. Statistical significances in cytokine analysis ELISA data were determined by two-tailed Student's t test.
# (§2) Naïve, female C57BL/6 mice at 8 to 10 weeks of age (18 to 21 g) from the Jackson Laboratory were randomly grouped (10 mice per group) and i.p. injected with vehicle or the indicated doses of dexamethasone (DEX), GF9, G-TE21, G-HV21 and G-KV21. One hour later, mice received i.p. injection of 30 mg/kg LPS from E. coli 055:B5 (Sigma). […] Body weights were measured daily. […] Statistical significances in cytokine analysis ELISA data were determined by two-tailed Student's t test.
# [6] = tested on: C57BL/6 mice with LPS-induced septic shock; assay: LPS-induced septic shock: survival; type: in vivo, mouse; conditions: free peptides, at this dose; 30 mg/kg LPS i.p.
# Procedure: as §1, §2
Compound,"TNF-alpha, IL-6 and IL-1beta production in mice at 90 min post LPS challenge (LPS-challenged mice [1])",survival of LPS-challenged mice (LPS-challenged mice [2]),average tumor weights [3],tumor growth [3],intratumoral macrophage infiltration (F4/80 staining) [4],tumor growth [4],LPS-stimulated cytokine production in vivo [5],protection from LPS-induced septic shock / survival [6]
CC(C)C[C@H](NC(=O)[C@H](Cc1ccccc1)NC(=O)CN)C(=O)N[C@@H](CO)C(=O)N[C@@H](CCCCN)C(=O)N[C@@H](CO)C(=O)N[C@@H](CC(C)C)C(=O)N[C@H](C(=O)N[C@@H](Cc1ccccc1)C(=O)NCC(=O)N[C@@H](CCC(=O)O)C(=O)N[C@@H](CCC(=O)O)C(=O)N[C@@H](CC[S+](C)[O-])C(=O)N[C@@H](CCCNC(=N)N)C(=O)N[C@@H](CC(=O)O)C(=O)N[C@@H](CCCNC(=N)N)C(=O)N[C@@H](C)C(=O)N[C@@H](CCCNC(=N)N)C(=O)N[C@@H](C)C(=O)N[C@@H](Cc1c[nH]cn1)C(=O)N[C@H](C(=O)O)C(C)C)C(C)C (stereo partly shown) [G-HV21] (HELM PEPTIDE1{G.F.L.S.K.S.L.V.F.G.E.E.[CS(=O)CC[C@H](N[*:1])C(=O)[*:2]].R.D.R.A.R.A.H.V}$$$$V2.0),significantly inhibit the LPS-induced cytokine release,significantly improve survival,significantly decrease the tumor weight,significantly inhibit the tumor growth,reduce macrophage infiltration into the tumor,significantly inhibits the tumor growth,inhibit LPS-stimulated cytokine production in vivo,protect mice from LPS-induced septic shock and prolongs survival of septic mice
CC(C)C[C@H](NC(=O)[C@H](Cc1ccccc1)NC(=O)CN)C(=O)N[C@@H](CO)C(=O)N[C@@H](CCCCN)C(=O)N[C@@H](CO)C(=O)N[C@@H](CC(C)C)C(=O)N[C@H](C(=O)N[C@@H](Cc1ccccc1)C(=O)N[C@@H](Cc1c[nH]c2ccccc12)C(=O)N[C@@H](CCC(N)=O)C(=O)N[C@@H](CCC(=O)O)C(=O)N[C@@H](CCC(=O)O)C(=O)N[C@@H](CC[S+](C)[O-])C(=O)N[C@@H](CCC(=O)O)C(=O)N[C@@H](CC(C)C)C(=O)N[C@@H](Cc1ccc(O)cc1)C(=O)N[C@@H](CCCNC(=N)N)C(=O)N[C@@H](CCC(N)=O)C(=O)N[C@@H](CCCCN)C(=O)N[C@H](C(=O)O)C(C)C)C(C)C (stereo partly shown) [G-KV21] (HELM PEPTIDE1{G.F.L.S.K.S.L.V.F.W.Q.E.E.[CS(=O)CC[C@H](N[*:1])C(=O)[*:2]].E.L.Y.R.Q.K.V}$$$$V2.0),significantly inhibit the LPS-induced cytokine release,significantly improve survival,significantly decrease the tumor weight,significantly inhibit the tumor growth,reduce macrophage infiltration into the tumor,significantly inhibits the tumor growth,inhibit LPS-stimulated cytokine production in vivo,protect mice from LPS-induced septic shock and prolongs survival of septic mice
